Data reported in PMC9458111, “New 1,2,3-Triazole-Coumarin-Glycoside Hybrids and Their 1,2,4-Triazolyl Thioglycoside Analogs Targeting Mitochondria Apoptotic Pathway: Synthesis, Anticancer Activity and Docking Simulation” (Molecules, 2022).

Assays:
[1] = test system: human breast cancer (MCF-7 cell lines); assay: MTT cytotoxicity assay, MCF-7; assay type: cell-based; settings: MCF7, 48 h
Procedure: (§1) The synthesized compounds were studied for their cytotoxic activity against several human cancer cell lines, namely human osteosarcoma (HOS cell lines), human breast adenocarcinoma (MDA-MB-231 cell lines), human breast cancer (MCF-7 cell lines), human colorectal adenocarcinoma (Caco-2 cell lines) and human colon cell line (HCT-116 cell lines) using MTT assay at 100 µM, and the results were outlined as shown in Table 1.
(§2) Human osteosarcoma (HOS cell line), human breast adenocarcinoma (MDA-MB-231cell lines), human breast cancer (MCF-7 cell lines), human colorectal adenocarcinoma (Caco2 cell lines), human colon cell line (HCT-116 cell lines), normal human cell lines (BJ-1), and “a telomerase immortalized normal foreskin fibroblast cell line” were obtained from Karolinska Center, Department of Oncology and Pathology, Karolinska Institute and Hospital, Stockholm, Sweden.
(§3) Following culturing for 10 days, the cells were seeded at concentration of 10 × 10^3 cells per well in case of MCF-7 & MDA, 20 × 10^3 cells/well in a fresh complete growth medium in case of HCT-116, Caco2, & HOS and 40 × 10^3 cells/well in case of BJ-1 at 37 °C for 24 h in a water jacketed carbon dioxide incubator. After 48 h’ incubation, the medium was aspirated, and then 40 μl MTT salt (2.5 mg/mL) were added for a further 4 h; 200 μl 10% sodium dodecyl sulphate (SDS) in deionized water were added to each well and incubated overnight at 37 °C. The absorbance was measured at 595 nm with reference 690 nm. Doxorubicin was used as positive control, and 0.5% DMSO was used as negative control. IC50 values were calculated, using a probit analysis, and by utilizing the SPSS computer program (SPSS for Windows, statistical analysis software package/version 9/1989 SPSS Inc., Chicago, IL, USA).

[2] = test system: human colon cell line (HCT-116 cell lines); assay: MTT cytotoxicity assay, HCT-116; assay type: cell-based; settings: for cytotoxicity at 100 µM: HCT-116, 48 h
Procedure: as §1, §2, §3

[3] = test system: human colorectal adenocarcinoma (Caco-2 cell lines); assay: MTT cytotoxicity assay, Caco-2; assay type: cell-based; settings: Caco-2, 48 h
Procedure: as §1, §2, §3

[4] = test system: human breast adenocarcinoma (MDA-MB-231 cell lines); assay: MTT cytotoxicity assay, MDA-MB-231; assay type: cell-based; settings: for cytotoxicity at 100 µM: MDA-MB-231, 48 h
Procedure: as §1, §2, §3

[5] = test system: human osteosarcoma (HOS cell lines); assay: MTT cytotoxicity assay, HOS; assay type: cell-based; settings: for cytotoxicity at 100 µM: 48 h; for IC50: MTT, 0.78–100 µM, ± SD
Procedure: as §1, §2, §3

[6] = test system: normal human skin cell lines BJ-1; assay: Safety on normal human skin cells BJ-1 (MTT); assay type: cell-based; settings: 100 µM
Procedure: To determine the selectivity and safety, all tested compounds were subjected to an assay for their safety upon normal human skin cell lines BJ-1 at a concentration of 100 µM.
as §2, §3

SMILES | melting point [°C] | cytotoxicity at 100 µM [1] [%] | cytotoxicity at 100 µM [2] [%] | cytotoxicity at 100 µM [3] [%] | cytotoxicity at 100 µM [4] [%] | cytotoxicity at 100 µM [5] [%] | Toxicity on normal skin cells BJ-1 (in words) [6] | IC50 ([2]; HCT-116, MTT, 0.78–100 µM, ± SD) [µM] | IC50 [5] [µM] | IC50 ([4]; MDA-MB-231, MTT, 0.78–100 µM, ± SD) [µM]
Cn1c(COc2ccc3c(-c4ccccc4)cc(=O)oc3c2)n[nH]c1=S [Compound 1a] | – | 15.6 ± 0.2 | 16.8 ± 0.1 | 34.8 ± 1.3 | 24.1 ± 1.4 | 42.5 ± 1.2 | – | – | – | –
CCn1c(COc2ccc3c(-c4ccccc4)cc(=O)oc3c2)n[nH]c1=S [Compound 1b] | – | 88 ± 1.4 | 81 ± 1.2 | 77.7 ± 0.8 | 69.7 ± 2.4 | 92 ± 2.1 | high toxicity | – | – | –
CC(=O)OC[C@H]1O[C@@H](Sc2nnc(COc3ccc4c(-c5ccccc5)cc(=O)oc4c3)n2C)[C@H](OC(C)=O)[C@@H](OC(C)=O)[C@H]1OC(C)=O [Compound 3, 4-Phenyl-7-((4-methyl-5-(1-(2,3,4,6-tetra-O-acetyl-β-D-galactopyranosyl)thio)-4H-1,2,4-triazol-3-yl)methoxy)-2H-chromen-2-one] | 211 to 213 | 9.8 ± 0.6 | 11.1 ± 0.4 | 23.2 ± 1.1 | 15.4 ± 0.5 | 18.4 ± 0.7 | – | – | – | –
CC(=O)O[C@@H]1[C@@H](OC(C)=O)[C@H](Sc2nnc(COc3ccc4c(-c5ccccc5)cc(=O)oc4c3)n2C)OC[C@H]1OC(C)=O [Compound 4, 4-Phenyl-7-((4-methyl-5-(1-(2,3,4-tri-O-acetyl-β-D-xylopyranosyl)thio)-4H-1,2,4-triazol-3-yl)methoxy)-2H-chromen-2-one] | 132 to 133 | 17.1 ± 0.3 | 15 ± 0.6 | 24.9 ± 0.6 | 36.9 ± 1.2 | 45.5 ± 0.6 | – | – | – | –
CCn1c(COc2ccc3c(-c4ccccc4)cc(=O)oc3c2)nnc1S[C@@H]1O[C@H](COC(C)=O)[C@H](OC(C)=O)[C@H](OC(C)=O)[C@H]1OC(C)=O [Compound 5, 4-Phenyl-7-((4-ethyl-5-(1-(2,3,4,6-tetra-O-acetyl-β-D-galactopyranosyl)thio)-4H-1,2,4-triazol-3-yl)methoxy)-2H-chromen-2-one] | 151 to 152 | 2.8 ± 0.2 | 7.6 ± 0.2 | 20.6 ± 0.3 | 18.5 ± 0.6 | 24.9 ± 0.6 | – | – | – | –
Cn1c(COc2ccc3c(-c4ccccc4)cc(=O)oc3c2)nnc1S[C@@H]1O[C@H](CO)[C@H](O)[C@H](O)[C@H]1O [Compound 7, 4-Phenyl-7-((4-methyl-5-(1-(β-D-galactopyranosyl)thio)-4H-1,2,4-triazol-3-yl)methoxy)-2H-chromen-2-one] | – | 14.3 ± 0.2 | 16.6 ± 0.8 | 35.7 ± 0.3 | 15.5 ± 1.1 | 7.3 ± 0.3 | – | – | – | –
CCn1c(COc2ccc3c(-c4ccccc4)cc(=O)oc3c2)nnc1S[C@@H]1O[C@H](CO)[C@H](O)[C@H](O)[C@H]1O [Compound 9, 4-Phenyl-7-((4-ethyl-5-(1-(β-D-galactopyranosyl)thio)-4H-1,2,4-triazol-3-yl)meth-oxy)-2H-chromen-2-one] | 184 to 185 | 37.8 ± 0.3 | 22.7 ± 0.9 | 1.7 ± 0.1 | 27.7 ± 0.4 | 20.4 ± 0.4 | – | – | – | –
O=c1cc(-c2ccccc2)c2ccc(O)cc2o1 [Compound 15, 7-hydroxy-4-phenyl-2H-chromen-2-one] | – | 36.8 ± 1.1 | 89.3 ± 0.7 | 46.1 ± 0.6 | 34.5 ± 0.4 | 62.7 ± 1.5 | – | 46 ± 2.2 | 88.3 ± 2.2 | –
O=c1cc(-c2ccccc2)c2ccc(OCCCCI)cc2o1 [Compound 17, 7-(4-Iodobutoxy)-4-phenyl-2H-chromen-2-one] | 143 to 145 | 38.5 ± 1.2 | 38.2 ± 0.7 | 34.3 ± 0.3 | 7.7 ± 0.4 | 50.8 ± 0.7 | – | – | – | –
[N-]=[N+]=NCCCCOc1ccc2c(-c3ccccc3)cc(=O)oc2c1 [Compound 19, 7-(4-Azidobutoxy)-4-phenyl-2H-chromen-2-one] | 114 to 116 | – | – | – | – | – | – | – | – | –
CC(=O)OC[C@H]1O[C@@H](OCc2cn(CCCCOc3ccc4c(-c5ccccc5)cc(=O)oc4c3)nn2)[C@H](OC(C)=O)[C@@H](OC(C)=O)[C@H]1OC(C)=O [Compound 23] | 118 to 119 | 35.2 ± 0.3 | 30.4 ± 0.7 | 13.6 ± 0.4 | 28.6 ± 0.2 | 0 | – | – | – | –
O=c1cc(-c2ccccc2)c2ccc(OCCCn3cc(CO[C@@H]4O[C@H](CO)[C@H](O)[C@H](O)[C@H]4O)nn3)cc2o1 [Compound 24] | 190 to 191 | 88.2 ± 1.1 | 99.1 ± 0.8 | 86.5 ± 0.9 | 97.7 ± 0.8 | 97.6 ± 1.3 | high toxicity | – | – | –

The next lines start with results.

melting point [°C] | SMILES | cytotoxicity at 100 µM [1] [%] | cytotoxicity at 100 µM [2] [%] | cytotoxicity at 100 µM [3] [%] | cytotoxicity at 100 µM [4] [%] | cytotoxicity at 100 µM [5] [%] | Toxicity on normal skin cells BJ-1 (in words) [6] | IC50 ([2]; HCT-116, MTT, 0.78–100 µM, ± SD) [µM] | IC50 [5] [µM] | IC50 ([4]; MDA-MB-231, MTT, 0.78–100 µM, ± SD) [µM]
127 to 128 | CCn1c(COc2ccc3c(-c4ccccc4)cc(=O)oc3c2)nnc1S[C@@H]1OC[C@@H](OC(C)=O)[C@H](OC(C)=O)[C@H]1OC(C)=O [Compound 6, 4-Phenyl-7-((4-ethyl-5-(1-(2,3,4-tri-O-acetyl-β-D-xylopyranosyl)thio)-4H-1,2,4-triazol-3-yl)methoxy)-2H-chromen-2-one] | 14.3 ± 0.1 | 18.9 ± 0.6 | 30.1 ± 0.1 | 7.4 ± 0.3 | 33.1 ± 0.2 | – | – | – | –
155 to 156 | Cn1c(COc2ccc3c(-c4ccccc4)cc(=O)oc3c2)nnc1SCCOCCO [Compound 11, 4-Phenyl-7-((5-((2-(2-hydroxyethoxy)ethyl)thio)-4-methyl-4H-1,2,4-triazol-3-yl)methoxy)-2H-chromen-2-one] | 86.7 ± 0.7 | 91.7 ± 1.1 | 19.1 ± 0.4 | 62.4 ± 0.7 | 39.7 ± 0.8 | high toxicity | – | – | –
152 to 153 | CCn1c(COc2ccc3c(-c4ccccc4)cc(=O)oc3c2)nnc1SCCOCCO [Compound 12, 4-Phenyl-7-((4-ethyl-5-((2-(2-hydroxyethoxy)ethyl)thio)-4H-1,2,4-triazol-3-yl)methoxy)-2H-chromen-2-one] | 97.6 ± 0.9 | 84.4 ± 0.8 | 92 ± 1.3 | 91.2 ± 0.8 | 97.2 ± 1.3 | high toxicity | – | – | –
170 to 171 | Cn1c(COc2ccc3c(-c4ccccc4)cc(=O)oc3c2)nnc1SCC(O)CO (centres unmarked) [Compound 13, 4-Phenyl-7-((5-((2,3-dihydroxypropyl)thio)-4-methyl-4H-1,2,4-triazol-3-yl)meth-oxy)-2H-chromen-2-one] | 51.9 ± 0.2 | 26.1 ± 0.3 | 16.6 ± 0.7 | 0 | 2.8 ± 0.2 | – | – | – | –
180 to 181 | CCn1c(COc2ccc3c(-c4ccccc4)cc(=O)oc3c2)nnc1SCC(O)CO (centres unmarked) [Compound 14, 4-Phenyl-7-((5-((2,3-dihydroxypropyl)thio)-4-ethyl-4H-1,2,4-triazol-3-yl)methoxy)-2H-chromen-2-one] | 98.1 ± 0.3 | 95.2 ± 0.9 | 91.2 ± 2.1 | 97.8 ± 0.7 | 90.5 ± 1.1 | high toxicity | – | – | –
130 to 131 | O=c1cc(-c2ccccc2)c2ccc(OCCCI)cc2o1 [Compound 16, 7-(3-Iodopropoxy)-4-phenyl-2H-chromen-2-one] | 35.6 ± 0.8 | 12.8 ± 1.1 | 54.3 ± 0.4 | 88.3 ± 1.4 | 91.2 ± 2.2 | – | – | 26.2 ± 1.4 | 39.5 ± 0.9
110 to 111 | [N-]=[N+]=NCCCOc1ccc2c(-c3ccccc3)cc(=O)oc2c1 [Compound 18, 7-(3-Azidopropoxy)-4-phenyl-2H-chromen-2-one] | – | – | – | – | – | – | – | – | –
127 to 128 | CC(=O)O[C@@H]1[C@@H](OC(C)=O)[C@H](OCc2cn(CCCOc3ccc4c(-c5ccccc5)cc(=O)oc4c3)nn2)OC[C@H]1OC(C)=O [Compound 22] | 91.9 ± 0.8 | 97.3 ± 0.8 | 57.5 ± 0.5 | 97.1 ± 1.1 | 90.6 ± 1.5 | high toxicity | – | – | –
